These results are taken from article PMC9320964, “Improving the Therapeutic Index of Smp24, a Venom-Derived Antimicrobial Peptide: Increased Activity against Gram-Negative Bacteria” (International Journal of Molecular Sciences, 2022).

Holding throughout (assay type): cell-based
For series [1], the system named is Escherichia coli JM109. Kind of series: MIC by broth microdilution. Particulars: Muller Hinton broth, turbidity A600 nm. The protocol: (§1) The bacterial isolates used in this study (Escherichia coli JM109, Staphylococcus aureus SH1000 and Pseudomonas aeruginosa H085180216) were obtained from the culture collection held at Sheffield Hallam University.
(§2) All antimicrobial assays were performed by a broth microdilution method in Muller Hinton (MH) broth using a CLARIOstar plate reader (BMG Labtech, Offenburg, Germany) to determine the minimum inhibitory concentration (MIC). The MIC was defined as the lowest concentration of antimicrobial peptide at which growth was inhibited when viewed as turbidity (A600 nm) against a negative broth control. To determine the minimum bactericidal concentration (MBC), 5 µL aliquots were taken from the wells of the MIC plate and spot-plated onto MH agar in triplicate. The plates were incubated for 18–24 h at 37 °C.

The subject of series [2] is Pseudomonas aeruginosa H085180216. Description: MIC by broth microdilution. To be noted: Muller Hinton broth, turbidity A600 nm. The protocol:
as §1, §2

Series [3] relates to Staphylococcus aureus SH1000. Description: MIC by broth microdilution. To be noted: Muller Hinton broth, turbidity A600 nm. The protocol: as §1, §2
In general terms: Broth dilution looks for growth in wells or tubes with falling amounts of substance.

Series [4] deals with Escherichia coli JM109. Kind of series: MBC by spot-plating from MIC plate. Particulars: 5 µL aliquots of MIC plate spot-plated onto MH agar in triplicate, 18–24 h at 37 °C. The protocol:
as §1, §2

For series [5], the system named is Pseudomonas aeruginosa H085180216. Kind of series: MBC by spot-plating from MIC plate. To be noted: 5 µL aliquots of MIC plate spot-plated onto MH agar in triplicate, 18–24 h at 37 °C. The protocol: as §1, §2
Series [6] deals with Staphylococcus aureus SH1000. Description: MBC by spot-plating from MIC plate. Particulars: 5 µL aliquots of MIC plate spot-plated onto MH agar in triplicate, 18–24 h at 37 °C. The protocol: as §1, §2
The test system of a further series is sheep erythrocytes. Kind of series: Haemolysis assay. Particulars: peptides 0–512 µg/mL, triplicate, 10% Triton X-100 positive control. The protocol: Haemolytic activity was determined on sheep erythrocytes as described by Corzo, 2001 [23]. All samples were tested in triplicate and results given as HC50 values. Peptides were examined in the range of 0–512 µg/mL. 10% Triton X-100 was used as a positive control and deionised water with PBS as a negative control.

Another series has as its system HEK293 cells. Kind of series: LDH cytotoxicity assay. Particulars: LDH release, human kidney HEK293 cells, 0–512 µg/mL, 24 h, 37 °C, triplicate on 2 separate occasions. The protocol: (§3) An LDH assay (Fisher, Loughborough, UK) was used to determine the cytotoxic potential of the peptides against liver (HepG2) and kidney (HEK293) cells. Cells were grown in accordance with the manufacturer’s protocols. Cells were grown in DMEM containing 1 g/L D-glucose, 10% foetal bovine serum and 1% penicillin-streptomycin. Cells were grown to 80% confluence (37 °C, 5% CO2), washed twice with PBS, trypsinised, re-suspended and seeded at a density of […] in a 96-well plate. Cells were incubated for 24 h, and peptides or lipopeptide antibiotics (0–512 µg/mL) were added and incubated at 37 °C, 5% CO2 for 24 h. LDH release was determined via the manufacturer’s methods. All assays were performed in triplicate on 2 separate occasions. Triton X-100 (10%) was used as a positive control and deionised water as a negative control. Absorbance was read at 490 nm and 680 nm on a plate reader (CLARIOstar). LD50 values were calculated by plotting a dose–response curve and determining the dosage that would cause 50% cell death.
(LDH leaks from cells whose membrane has failed.)

For the next series, the system named is HepG2 cells. Description: LDH cytotoxicity assay. Particulars: LDH release, human liver HepG2 cells, 0–512 µg/mL, 24 h, 37 °C, triplicate on 2 separate occasions. The protocol:
as §3

In brackets after ≈: the same amount, converted by molar mass. Marks after values point to notes of the source that are not given here. Residues, ends and D or L forms follow the SMILES beside them. No end group written: not given here. A value given as a limit tells only on which side of the number the result lay.

As to IWSFLIKAATKLLPSLFGGGKKFS [Smp24 D23F], the “MIC E. coli” value in the series with Escherichia coli JM109 [1] turned out to be 32 µg/mL. Further, in series [2], the “MIC P. aeruginosa” value was determined as 64 µg/mL. Further, the “MIC S. aureus” value in [3] turned out to be 32 µg/mL. Further, the “MBC E. coli” value against Escherichia coli JM109 [4] amounted to 32 µg/mL. In addition, in [5], the “MBC P. aeruginosa” value worked out at 64 µg/mL. In addition, the “MBC S. aureus” value in series [6] came to 32 µg/mL. The concentration for 50% haemolysis (HC50) in the series with sheep erythrocytes is recorded as 33 * μg/mL. Further, the “LD50 HEK293” value in the series with HEK293 cells was 38 µg/mL. Further, the “LD50 HepG2” value in the series on HepG2 cells was >512 * μg/mL.
As for IASFLIKAATKLLPSLFGGGKKDS [Smp24 W2A], the concentration for 50% haemolysis (HC50) in the series on sheep erythrocytes (listed as W2A) was greater than 512 µg/mL.
As for `CC[C@H](C)CCCCC(=O)N[C@@H](CCN)C(=O)N[C@H](C(=O)N[C@@H](CCN)C(=O)N[C@H]1CCNC(=O)[C@H]([C@@H](C)O)NC(=O)[C@H](CCN)NC(=O)[C@H](CCN)NC(=O)[C@H](CC(C)C)NC(=O)[C@@H](Cc2ccccc2)NC(=O)[C@H](CCN)NC1=O)[C@@H](C)O` [Polymyxin B] (HELM PEPTIDE1{[CC[C@H](C)CCCCC(=O)[*:2]].[Dab].T.[Dab].[Dab].[Dab].[dF].L.[Dab].[Dab].T}$PEPTIDE1,PEPTIDE1,5:R3-11:R2$$$V2.0; N-terminus assumed; bridges inferred), in the series with Escherichia coli JM109 [1], the “MIC E. coli” value was 2 µg/mL (≈ 1.66 µM). For the same compound, in series [2], the “MIC P. aeruginosa” value stood at 2 µg/mL (≈ 1.66 µM). In addition, the “MIC S. aureus” value in [3] is 32 µg/mL (≈ 26.6 µM). In the series on Escherichia coli JM109 [4], the “MBC E. coli” value is 4 µg/mL (≈ 3.32 µM). The “MBC P. aeruginosa” value in series [5] was 8 µg/mL (≈ 6.65 µM). The “MBC S. aureus” value in series [6] was 64 µg/mL (≈ 53.2 µM). Besides, the 50% haemolytic concentration (HC50) was greater than 512 µg/mL with sheep erythrocytes and no less than 512 µg/mL with sheep erythrocytes (listed as polymyxin B). In addition, the “LD50 HEK293” value in the series with HEK293 cells is 351 µg/mL. Besides, in the series with HepG2 cells, the “LD50 HepG2” value was greater than 512 µg/mL.
IWSALIKAATKLLPSLFGGGKKDS [Smp24 F4A] had an HC50 in the series on sheep erythrocytes (listed as F4A) of 423 µg/mL.
In the series with sheep erythrocytes (listed as K7F), IWSFLIFAATKLLPSLFGGGKKDS [Smp24 K7F] had a concentration for 50% haemolysis (HC50) of 442 µg/mL.
With `CCCCCCCCCC(=O)N[C@@H](Cc1c[nH]c2ccccc12)C(=O)N[C@H](CC(N)=O)C(=O)N[C@@H](CC(=O)O)C(=O)N[C@@H]1C(=O)NCC(=O)N[C@@H](CCCN)C(=O)N[C@@H](CC(=O)O)C(=O)N[C@H](C)C(=O)N[C@@H](CC(=O)O)C(=O)NCC(=O)N[C@H](CO)C(=O)N[C@@H]([C@H](C)CC(=O)O)C(=O)N[C@@H](CC(=O)c2ccccc2N)C(=O)O[C@@H]1C` [Daptomycin], the “MIC E. coli” value with Escherichia coli JM109 [1] was greater than 512 µg/mL. Besides, the “MIC P. aeruginosa” value in series [2] is greater than 512 µg/mL. The “MIC S. aureus” value in [3] was 4 µg/mL (≈ 2.47 µM). Moreover, the “MBC E. coli” value against Escherichia coli JM109 [4] was greater than 512 µg/mL. For the same compound, the “MBC P. aeruginosa” value in series [5] is greater than 512 µg/mL. The “MBC S. aureus” value in series [6] is 8 µg/mL (≈ 4.94 µM). Further, the values for the HC50 in the series with sheep erythrocytes and with sheep erythrocytes (listed as daptomycin) were greater than 512 µg/mL and no less than 512 µg/mL, respectively. Besides, in the series on HEK293 cells, the “LD50 HEK293” value was greater than 512 µg/mL. Besides, in the series with HepG2 cells, the “LD50 HepG2” value was greater than 512 µg/mL.

As a reminder, the HC50 is the concentration giving 50% haemolysis.
